Here are results for five compounds from patent US20130024954A1, “Human Age-Related Neurodegenerative Nematode Model and Methods” (priority 2011, published 2013).

One test deals with VC4 and VC5 neurons. As to the kind of experiment: Quantification of percent neurodegeneration of VC4&5 neurons with drug treatment (Example 2). The following applies: for neurodegeneration induced by APP or apl-1 (in words): 50 μM from L4-larval stage onward, FIG. 25A; for degeneration with gain-of-function mutation in egl-1 (in words): SC_APP and SC_apl-1 strains with egl-1 gain-of-function mutation; for degeneration of VC4&5, SC_APPC59 strain (in words): SC_APPC59 strain (intracellular portion of APP); for degeneration of VC4&5, SC_APPC59 strain (in words) / degeneration of VC4&5, SC_APPN636 strain (in words): FIG. 31; for degeneration of VC4&5, SC_APPN636 strain (in words): SC_APPN636 strain (extracellular and transmembrane portion of APP); for degeneration in egl-1 (null) mutant background (in words): egl-1 (null) background, FIG. 25C. The test is classed as in vivo, C. elegans. The procedure:
All analyses were completed with the experimenter blind to genotype and drug treatment. Age-synchronized animals were immobilized on 2% agar pads containing 0.7 mM sodium azide. Neurons that had broken/missing axonal projections, dimly-lit somas with missing projections or absent GFP labeling in the appropriate neuronal location were classified as degenerating. Serotonin neurons included NSM, ADF, AIM, RIH, HSN class members. All animals were evaluated within 10 minutes of azide treatment. In cases where the worm strains were too defective in egg laying to reach day 3 or 5 adult stage, animals were treated at L4-larval stage onward with the sterilization drug 5-fluoro-2′-deoxyuridne (0.12 mM final) (Sigma). […] The percentage of VC4 and VC5 neurons that succumbed to APP-induced degeneration was compared for different groups (strain, age, drug condition) using planned non-parametric X^2 analyses.
Drugs were freshly prepared in buffer (M9) solution and pipetted onto small seeded plates. These plates were allowed to dry at least 2 hours at RT before use. The final drug concentrations of solid media are: Dimebon, 50 μM (Tocris); P7C3, 50 μM. Well-fed larval stage 4 animals were picked onto seeded plates with or without drug. Animals were then allowed to age at 20° C. for ˜20 (day 1 adult), ˜68 (day 3 adult) and ˜116 hours (day 5 adult) before analysis. Controls using buffer with no drug were performed on each strain for each assay, and each assay was repeated multiple (3-8) times. Data were then averaged and statistically compared with planned non-parametric X2 analyses (Zar, 1999).

For test [1], the system named is egg-laying and swimming behaviors. As to the kind of experiment: Egg-retention assay and swimming kinematics (behaviors that depend on VC4&5 neurons). The test is classed as in vivo, C. elegans. The following applies: for egg-laying and swimming behaviors, SC_APPC59 strain (in words): data not shown; for behavioral deficits (swimming and egg laying) with age (in words): drug-treated SC_APP:mCh or SC_apl-1:mCh individuals. As to the method: Plates of non-starved adult worms were bleached to yield a synchronized population of eggs. Eggs were allowed to develop for ˜55 hours (day 1 adult) and ˜103 (day 3 adult) hours at 20° C. Animals were then individually dissolved in 1N NaOH, and eggs retained within the dissolved adult animal were counted.
Worms were submerged in NGM liquid and recorded for 1 minute following a 2-minute acclimation period. Spine analysis software was then used to calculate and plot the midbody angle of the worm as described in Pierce-Shimomura J T, Chen B L, Mun J J, Ho R, Sarkis R, McIntire S L. 2008. Genetic analysis of crawling and swimming locomotory patterns in C. elegans. Proc Natl Acad Sci USA. 105: 20982-7, incorporated by reference. Head-bend frequency was determined based on the average time it took an animal to make 20 complete-cycle head bends.

Another test has as its system neurons VC4 and VC5. As to the kind of experiment: Degeneration of VC4 and VC5 neurons in single-copy apl-1/huAPP695 overexpression worms treated with drugs (Example 1). The test is classed as in vivo, C. elegans. The following applies: for APP-induced degeneration of VC4 and VC5 (in words): Example 1, FIG. 19, Table 3; for % degen / Day 1 (degenerated of counted) / Day 3 (degenerated of counted) / Day 5 (degenerated of counted): Dimebon. The source says:
Many transgenic strains can be easily obtained from a public consortium (CGC), including those with specific neurons fluorescently labeled in a variety of colors. If not publicly available, these strains can be easily constructed using a PCR fusion approach. Final PCR products contain the GFP gene driven by a specific promoter-of-interest and are then microinjected into the gonad of adult wildtype animals. C. elegans have the ability to form a stable, functional extra-chromosomal array with injected PCR products. Therefore, they express injected DNA. Fluorescent worms are then crossed to the single-copy overexpression worms to generate overexpression worms with different identifiable sets of neurons labeled.

Test [2] has as its system adult-born neurons in the hippocampus. The note with it: earlier reports; cited from earlier work.
The mark [3] stands for this setting: SC_huAPP695 strain, adult day 1.
Setting [4] is: SC_huAPP695 strain, adult day 3.
The mark [5] stands for this setting: SC_huAPP695 strain, adult day 5.

Turning to `O=c1[nH]c(=O)n([C@H]2C[C@H](O)[C@@H](CO)O2)cc1F` [5-fluoro-2′-deoxyuridne], the “effect on progression of degeneration of VC neurons (in words)” value in the test with VC4 and VC5 neurons (0.12 mM final, from L4-larval stage onward (sterilization drug)) was “no effect on the progression of degeneration of VC neurons”. In addition, the “swimming defect of single-copy APP or apl-1 strains after sterilization (in words)” value in test [1] (0.12 mM final, swimming kinematics) is reported as “displayed the same defect”.
Regarding `Cc1ccc2c(c1)c1c(n2CCc2ccc(C)nc2)CCN(C)C1` [Dimebon], the “APP-induced degeneration of VC4 and VC5 (in words)” value (shortened to “APP-induced degeneration”) in the test on neurons VC4 and VC5 is given as “prevents APP-induced neurodegeneration”. In the test with neurons VC4 and VC5 (SC_apl-1 strain, adult day 1), the “% degen” value worked out at 8.97% and the “Day 1 (degenerated of counted)” value is recorded as 14 of 156. Further, in the test with neurons VC4 and VC5 (SC_apl-1 strain, adult day 3), the “% degen” value is reported as 15.88% and the “Day 3 (degenerated of counted)” value is 27 of 170. Further, in the test with neurons VC4 and VC5 (SC_apl-1 strain, adult day 5), the “% degen” value is given as 17.64% and the “Day 5 (degenerated of counted)” value is 12 of 68. In addition, in the test with neurons VC4 and VC5 (setting [3]), the “% degen” value came out at 10.66% and the “Day 1 (degenerated of counted)” value is 13 of 122. In the test with neurons VC4 and VC5 (setting [4]), the “% degen” value was 15.45% and the “Day 3 (degenerated of counted)” value is 17 of 110. In addition, in the test on neurons VC4 and VC5 (setting [5]), the “% degen” value is on record as 16.67% and the “Day 5 (degenerated of counted)” value is reported as 13 of 78. Also, in the test on neurons VC4 and VC5 (Wild-type strain, adult day 1), the “% degen” value worked out at 4.63% and the “Day 1 (degenerated of counted)” value is 5 of 108. Also, in the test on neurons VC4 and VC5 (Wild-type strain, adult day 3), the “% degen” value is recorded as 6.45% and the “Day 3 (degenerated of counted)” value is 8 of 124. In the test on neurons VC4 and VC5 (Wild-type strain, adult day 5), the “% degen” value was 12.93% and the “Day 5 (degenerated of counted)” value is 15 of 116. Further, in the test on VC4 and VC5 neurons, the “neurodegeneration induced by APP or apl-1 (in words)” value is on record as “prevented neurodegeneration”; the “degeneration with gain-of-function mutation in egl-1 (in words)” value is on record as “failed to prevent degeneration”; the “degeneration of VC4&5, SC_APPC59 strain (in words)” value is given as “prevented degeneration”; the “degeneration of VC4&5, SC_APPN636 strain (in words)” value is “failed to provide protection”. For the same compound, in the test on VC4 and VC5 neurons, the “degeneration in egl-1 (null) mutant background (in words)” value is “no further protection from degeneration”. For the same compound, in test [1], the “egg-laying and swimming behaviors, SC_APPC59 strain (in words)” value is “protection of egg-laying and swimming behaviors”; the “behavioral deficits (swimming and egg laying) with age (in words)” value is “without behavioral deficits”. For the same compound, the “adult-born hippocampal neurons (in words)” value in test [2] was “promote the survival (prevent death) of adult-born hippocampal neurons”.
For the compound `CN1CCN2c3ccccc3Cc3ccccc3C2C1` (stereo not shown) [Mianserin], in the test on neurons VC4 and VC5, the “APP-induced degeneration” value was “prevent APP-induced degeneration”.
For the compound `CN1CCN2c3ncccc3Cc3ccccc3C2C1` (stereo not shown) [Mirtazapine], the “APP-induced degeneration” value with neurons VC4 and VC5 is “prevent APP-induced degeneration”.
As for `OC(CNc1ccccc1)Cn1c2ccc(Br)cc2c2cc(Br)ccc21` (stereo not shown) [P7C3], in the test with VC4 and VC5 neurons, the “neurodegeneration induced by APP or apl-1 (in words)” value is listed as “significantly prevented neurodegeneration”; the “degeneration with gain-of-function mutation in egl-1 (in words)” value was “failed to prevent degeneration”; the “degeneration of VC4&5, SC_APPC59 strain (in words)” value is on record as “prevented degeneration”; the “degeneration of VC4&5, SC_APPN636 strain (in words)” value is “failed to provide protection”. In the test with VC4 and VC5 neurons, the “degeneration in egl-1 (null) mutant background (in words)” value is on record as “no further protection from degeneration”. Further, the “relative potency in dose response analysis” value in the test with VC4 and VC5 neurons (prevention of VC4&5 degeneration, FIG. 25B) is recorded as “two-orders of magnitude more potent than Dimebon”. Further, in test [1], the “egg-laying and swimming behaviors, SC_APPC59 strain (in words)” value is “protection of egg-laying and swimming behaviors”; the “behavioral deficits (swimming and egg laying) with age (in words)” value is “without behavioral deficits”. The “adult-born hippocampal neurons (in words)” value in test [2] is listed as “increase the number of adult-born neurons in the hippocampus of mice”.
